The source made the active and inactive calls. The rule behind the calls is not given here.
Columns and labels:
[1] = tested on: Quadruplex DNA; test: Stabilization of Trypanosoma cruzi G-quadruplex RCr DNA (FAM-5'-GGGGACGGGAATGGGGGTGCATGAGGGG-3'-TAMRA) at 5 uM in presence of 1 to 10 uM double stranded ds26 DNA by FRET melting analysis; type: nucleic-acid assay
[2] = Drug uptake in epimastigote form of Trypanosoma cruzi BM Lopez assessed as localization in kinetoplast and nucleus at 20 uM measured after 24 hrs by fluorescence microscopy; type: ADME
[3] = tested on: Trypanosoma cruzi; test: Antiparasitic activity against trypomastigote form of Trypanosoma cruzi SOL (MHOM/ES/2008/SOL; DTU V) assessed as inhibition of parasite growth incubated for 96 hrs followed by incubation in dark with resazurin for 4 to 6 hrs by resazurin dye based fluorescence analysis; type: functional, organism-based
[4] = tested on: Trypanosoma cruzi; test: Potency index, ratio of Benznidazole IC50 to test compound IC50 for antiparasitic activity against trypomastigote form of Trypanosoma cruzi SOL (MHOM/ES/2008/SOL; DTU V) by resazurin dye based fluorescence analysis; type: functional
[5] = tested on: Trypanosoma cruzi; test: Antiparasitic activity against epimastigote form of Trypanosoma cruzi BM Lopez (TcIa) assessed as inhibition of parasite growth incubated for 96 hrs followed by incubation with resazurin for 4 to 6 hrs by resazurin dye based fluorescence analysis; type: functional, organism-based
[6] = tested on: Quadruplex DNA; test: Stabilization of human proto-oncogene G-quadruplex MYC DNA (FAM-5'-TTGAGGGTGGGTAGGGTGGGTAA-3'-TAMRA) assessed as change in apparent melting temperature at 5 uM by FRET melting analysis; type: nucleic-acid assay
[7] = Cytotoxicity against human MRC5 cells; type: toxicity, cell-based
[8] = tested on: dsDNA; test: Binding affinity to human duplex FdxT DNA (FAM-5'-TATAGCTAT-peg-TATAGCTATA-3'-TAMRA) at 5 uM by FRET melting analysis; type: nucleic-acid assay
[9] = tested on: Quadruplex DNA; test: Binding affinity to Trypanosoma cruzi G-quadruplex MCr DNA (FAM-5'-GTGGAGGGGGAGGGTCATGGGG-3'-TAMRA) at DNA:compound concentration ratio of 1:1 to 1:2 by CD melting assay; type: nucleic-acid assay
[10] = Drug uptake in epimastigote form of Trypanosoma cruzi BM Lopez at 20 uM measured after 2 hrs by fluorescence microscopy; type: ADME
[11] = tested on: Quadruplex DNA; test: Stabilization of Trypanosoma cruzi G-quadruplex MCr DNA (FAM-5'-GTGGAGGGGGAGGGTCATGGGG-3'-TAMRA) assessed as change in apparent melting temperature at 5 uM by FRET melting analysis; type: nucleic-acid assay
[12] = Drug uptake in epimastigote form of Trypanosoma cruzi BM Lopez assessed as localization in kinetoplast and nucleus at 20 uM measured after 4 hrs by fluorescence microscopy; type: ADME
[13] = Selectivity index, ratio of IC50 for cytotoxicity against human MRC5 cells to IC50 for antiparasitic activity against epimastigote form of Trypanosoma cruzi SOL (TcV); type: toxicity, cell-based; conditions: read-out: Ratio IC50
[14] = tested on: Quadruplex DNA; test: Binding affinity to Trypanosoma cruzi G-quadruplex MCr DNA (FAM-5'-GTGGAGGGGGAGGGTCATGGGG-3'-TAMRA) assessed as broadening of imino proton signals at 1 equiv. by 1H-NMR analysis; type: nucleic-acid assay
[15] = Selectivity index, ratio of IC50 for cytotoxicity against human MRC5 cells to IC50 for antiparasitic activity against trypomastigote form of Trypanosoma cruzi SOL (TcV); type: toxicity, cell-based; conditions: read-out: Ratio IC50
[16] = tested on: Quadruplex DNA; test: Binding affinity to Trypanosoma cruzi G-quadruplex MCr DNA (FAM-5'-GTGGAGGGGGAGGGTCATGGGG-3'-TAMRA) assessed as decrease in absorption with shift to higher wavelength at 25 uM by UV-Vis spectrophotometric analysis; type: nucleic-acid assay
[17] = tested on: Quadruplex DNA; test: Binding affinity to Trypanosoma cruzi G-quadruplex RCr DNA (FAM-5'-GGGGACGGGAATGGGGGTGCATGAGGGG-3'-TAMRA) assessed as broadening of imino proton signals with delta shift at 1 equiv. by 1H-NMR analysis; type: nucleic-acid assay
[18] = tested on: Trypanosoma cruzi; test: Antiparasitic activity against epimastigote form of Trypanosoma cruzi Y(TcII) assessed as inhibition of parasite growth incubated for 96 hrs followed by incubation with resazurin for 4 to 6 hrs by resazurin dye based fluorescence analysis; type: functional, organism-based
[19] = tested on: Quadruplex DNA; test: Stabilization of Trypanosoma cruzi G-quadruplex TCr DNA (FAM-5'-GGGAGGGACGGATGGGCAGAAACGGG-3'-TAMRA) assessed as change in apparent melting temperature at 5 uM by FRET melting analysis; type: nucleic-acid assay
[20] = tested on: Quadruplex DNA; test: Binding affinity to Trypanosoma cruzi G-quadruplex RCr DNA (FAM-5'-GGGGACGGGAATGGGGGTGCATGAGGGG-3'-TAMRA) assessed as decrease in absorption with shift to higher wavelength at 25 uM by UV-Vis spectrophotometric analysis; type: nucleic-acid assay
[21] = tested on: Quadruplex DNA; test: Stabilization of human telomere G-quadruplex F21T DNA (FAM-5'-GGGTTAGGGTTAGGGTTAGGG-3'-TAMRA) at 5 uM in presence of 1 to 10 uM double stranded ds26 DNA by FRET melting analysis; type: nucleic-acid assay
[22] = Selectivity index, ratio of IC50 for cytotoxicity against human MRC5 cells to IC50 for antiparasitic activity against epimastigote form of Trypanosoma cruzi Y (TcII); type: toxicity, cell-based; conditions: read-out: Ratio IC50
[23] = tested on: Trypanosoma cruzi; test: Antiparasitic activity against epimastigote form of Trypanosoma cruzi SOL(TcV) assessed as inhibition of parasite growth incubated for 96 hrs followed by incubation in dark with resazurin for 4 to 6 hrs by resazurin dye based fluorescence analysis; type: functional, organism-based
[24] = tested on: Quadruplex DNA; test: Binding affinity to Trypanosoma cruzi G-quadruplex TCr DNA (FAM-5'-GGGAGGGACGGATGGGCAGAAACGGG-3'-TAMRA) assessed as broadening of imino proton signals at 1 equiv. by 1H-NMR analysis; type: nucleic-acid assay
[25] = Selectivity index, ratio of IC50 for cytotoxicity against human MRC5 cells to IC50 for antiparasitic activity against epimastigote form of Trypanosoma cruzi BM Lopez (TcIa); type: toxicity, cell-based; conditions: read-out: Ratio IC50
[26] = tested on: Quadruplex DNA; test: Stabilization of Trypanosoma cruzi G-quadruplex RCr DNA (FAM-5'-GGGGACGGGAATGGGGGTGCATGAGGGG-3'-TAMRA) assessed as change in apparent melting temperature at 5 uM by FRET melting analysis; type: nucleic-acid assay
[27] = tested on: dsDNA; test: Binding affinity to double stranded ds26 DNA (unknown origin) assessed as decrease in absorbance with shift to lower wavelength at 25 uM by UV-Vis spectrophotometric analysis; type: nucleic-acid assay
[28] = tested on: Quadruplex DNA; test: Binding affinity to Trypanosoma cruzi G-quadruplex RCr DNA (FAM-5'-GGGGACGGGAATGGGGGTGCATGAGGGG-3'-TAMRA) assessed as increase in melting temperature at DNA:compound concentration ratio of 1:2 by CD melting assay; type: nucleic-acid assay
[29] = tested on: Quadruplex DNA; test: Stabilization of Trypanosoma cruzi G-quadruplex RCr DNA (FAM-5'-GGGGACGGGAATGGGGGTGCATGAGGGG-3'-TAMRA) at 10 uM by FRET melting analysis; type: nucleic-acid assay
[30] = tested on: Trypanosoma cruzi; test: Antiparasitic activity against epimastigote form of Trypanosoma cruzi DA (TcI) assessed as inhibition of parasite growth incubated for 96 hrs followed by incubation with resazurin for 4 to 6 hrs by resazurin dye based fluorescence analysis; type: functional, organism-based
[31] = tested on: Quadruplex DNA; test: Stabilization of human telomere G-quadruplex F21T DNA (FAM-5'-GGGTTAGGGTTAGGGTTAGGG-3'-TAMRA) assessed as change in apparent melting temperature at 5 uM by FRET melting analysis; type: nucleic-acid assay
[32] = Selectivity index, ratio of IC50 for cytotoxicity against human MRC5 cells to IC50 for antiparasitic activity against epimastigote form of Trypanosoma cruzi DA (TcI); type: toxicity, cell-based; conditions: read-out: Ratio IC50

Activity [1]: Active
Drug uptake [2]: Active
IC50 [3]: 1.5 µM
IC50 [5]: 30.1 µM
ΔTm [6]: 17 °C
Activity [8]: inactive
Activity [9]: Active
Drug uptake [10]: Active
ΔTm [11]: 14 °C
Drug uptake [12]: Active
Activity [14]: Active
Activity [16]: Active
Activity [17]: Active
IC50 [18]: 19.5 µM
ΔTm [19]: 17 °C
Activity [20]: Active
Activity [21]: Active
IC50 [23]: 20.8 µM
Activity [24]: Active
ΔTm [26]: 17 °C
Activity [27]: inactive
ΔTm [28]: 6.98 °C
Activity [29]: Active
IC50 [30]: 21.2 µM
ΔTm [31]: 17 °C
Compound: Cc1sc(-c2cccc3cc[n+](C)cc23)cc1C1=C(c2cc(-c3cccc4cc[n+](C)cc34)sc2C)CCC1.[I-].[I-]
Ratio IC50 [4]: 38
IC50 [7]: 61.4 µM
selectivity ratio [13]: 2.9
selectivity ratio [15]: 40.9
selectivity ratio [22]: 3.1
selectivity ratio [25]: 2
selectivity ratio [32]: 2.9
